# In patent US10676467B2 (Washington University, priority 2017, dated 2020):
# Entries after “also recorded” stand apart in the source; their conditions may differ.
# Experiments:
# S1P1 = S1P1 (Rattus norvegicus (Rat), UniProt P48303); test: MicroPET and tracer kinetic modeling in EAE rat model, lumbar spinal cord; type: in vivo; conditions: for 2TCM Vd / LoganAIF Vd: lumbar spinal cord, n = 3-4
# Protocol: MicroPET scans were performed using an Inveon PET/CT system (Siemens Inc., Knoxville, Tenn.). […] Each rat was secured to a custom-designed acrylic bed equipped with a nosecone for gas anesthesia. PET/CT scans were conducted under 1.5-2% isoflurane anesthesia with the rat placed in transaxial position and centered with the T13 vertebral spine in the field of view. […] A list mode protocol was used with 60-min dynamic data acquisition.
# PET image data was processed using filter back projection algorithm with attenuation and scatter corrections. The data were reconstructed per time frame employing an iterative reconstructional algorithm (three-dimensional ordered subset expectation maximization (3D-OSEM), maximum a posteriori (MAP)) and corrected for decay, random coincidences, scatter, and attenuation. […] Image data was analyzed using Inveon Research Workstation software IRW 4.2 (Siemens Inc., Knoxville, Tenn.). The regions of interest (ROI), the lumbar spinal cord and bilateral common carotid arteries, were drawn over the co-registered PET/CT images using the standard protocol published previously. Time-activity curves (TACs) were obtained and were expressed as % ID/g. A two-tailed t-test was used for the comparison of the tracer uptake in EAE rat lumbar spinal cord versus sham. A P value less than 0.05 was considered statistically significant. Time-activity curves were further analyzed using 2-tissue-compartment model (2TCM), as well as Logan graphical analysis, using the ROI over bilateral common carotid arteries for image-based arterial blood input function.
# [1] = Nonhuman primate (NHP) brain microPET scan; type: in vivo, macaques; conditions: normal NHP
# Protocol: To examine if newly-synthesized S1P1 radioligands could cross the BBB of NHPs, two male macaques (9-10 kg) were studied with a microPET Focus 220 scanner (Concorde/CTI/Siemens Microsystems, Knoxville, Tenn.). The welfare of the animals conformed to the requirements of National Institutes of Health (NIH). This work was conducted at the Nonhuman Primate Facility of Washington University in St. Louis with approval from the IACUC. Animals were maintained in facilities with 12-hour dark and light cycles, given access to food and water ad libitum and provided a variety of psychologically enriching tasks to prevent inappropriate deprivation. Animals were scanned under anesthesia (induced with ketamine and glycopyrrolate and maintained with inhalation isoflurane). Core temperature was kept about 37° C. with a heated water blanket. The head was secured in a head holder with the brain in the center of the field of view.
# PET scans were collected from O-120 min with the following time frames: 3×1 min, 4×2 min, 3×3 min and 20×5 min. Emission data were corrected for dead time, scatter and attenuation and then reconstructed to a final resolution of 2.0 mm full-width half maximum in all 3 dimensions at the center of the field of view. PET and MRI images were co-registered using automated image registration program (AIR). For quantitative analyses, three-dimensional ROI (the global brain) was identified on the MRI and transformed to the reconstructed PET images to obtain time-activity curves. Activity measures were standardized to body weight and the dose of radioactivity injected to yield standardized uptake value (SUV).
# Sequence of S1P1 (P48303 whole entry): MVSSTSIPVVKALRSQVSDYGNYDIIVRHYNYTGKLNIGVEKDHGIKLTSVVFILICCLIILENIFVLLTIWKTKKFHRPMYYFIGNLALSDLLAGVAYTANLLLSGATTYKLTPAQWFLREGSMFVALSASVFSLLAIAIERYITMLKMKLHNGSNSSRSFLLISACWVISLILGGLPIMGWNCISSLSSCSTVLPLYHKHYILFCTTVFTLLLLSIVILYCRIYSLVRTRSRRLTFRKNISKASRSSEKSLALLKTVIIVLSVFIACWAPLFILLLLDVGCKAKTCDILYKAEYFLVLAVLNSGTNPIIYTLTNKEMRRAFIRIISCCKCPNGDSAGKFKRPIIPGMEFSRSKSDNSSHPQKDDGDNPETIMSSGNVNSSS
smiles,measurement,setting,value
OCCOCCOCc1ccc(-c2noc(-c3ccc(OCC[18F])c(C(F)(F)F)c3)n2)cc1 [[^18F]12b],Visualization of rat lumbar spinal cord by microPET,S1P1; EAE and sham rats,clear visualization of lumbar spinal cord
same,2TCM Vd,S1P1; EAE rats,2.30 ± 0.13 mL/g
same,LoganAIF Vd,S1P1; EAE rats,2.27 ± 0.18 mL/g
same,"Tracer uptake in lumbar spinal cord, EAE","S1P1; EAE rats, summed SUV values 10-60 min post injection, n=3-4",1.20±0.04 SUV
same,2TCM Vd,S1P1; Sham rats,1.76 ± 0.19 mL/g
same,LoganAIF Vd,S1P1; Sham rats,1.75 ± 0.21 mL/g
same,Increase of tracer uptake in EAE rat lumbar spinal cord compared with shams,"S1P1; microPET, 10-60 min post injection",22.9%
same,Averaged tracer uptake in sham rat spinal cord,"S1P1; sham rats, 10-60 min post injection",1.0-1.1
same,"Tracer uptake in lumbar spinal cord, sham","S1P1; sham rats, summed SUV values 10-60 min post injection, n=3-4",0.98±0.09 SUV
same,Max SUV value in total brain,[1]; microPET,~2.4 SUV
same,"Blood-brain barrier crossing, NHP brain","[1]; microPET, listed as 18F-TZ4881",able to cross the blood brain barrier; also recorded: able to cross the BBB
same,Time to max SUV in total brain,[1]; post injection,~5 min
